One experiment concerns the target T1, yeast OLE1 (Saccharomyces cerevisiae, UniProt P21147).
T1 construct: expressed in transfected cells; host or cells: S. cerevisiae ole1Δ strain (W303 pdr1Δ pdr3Δ background), pRS316 plasmid, TDH3 promoter
T1 sequence (P21147 1-510): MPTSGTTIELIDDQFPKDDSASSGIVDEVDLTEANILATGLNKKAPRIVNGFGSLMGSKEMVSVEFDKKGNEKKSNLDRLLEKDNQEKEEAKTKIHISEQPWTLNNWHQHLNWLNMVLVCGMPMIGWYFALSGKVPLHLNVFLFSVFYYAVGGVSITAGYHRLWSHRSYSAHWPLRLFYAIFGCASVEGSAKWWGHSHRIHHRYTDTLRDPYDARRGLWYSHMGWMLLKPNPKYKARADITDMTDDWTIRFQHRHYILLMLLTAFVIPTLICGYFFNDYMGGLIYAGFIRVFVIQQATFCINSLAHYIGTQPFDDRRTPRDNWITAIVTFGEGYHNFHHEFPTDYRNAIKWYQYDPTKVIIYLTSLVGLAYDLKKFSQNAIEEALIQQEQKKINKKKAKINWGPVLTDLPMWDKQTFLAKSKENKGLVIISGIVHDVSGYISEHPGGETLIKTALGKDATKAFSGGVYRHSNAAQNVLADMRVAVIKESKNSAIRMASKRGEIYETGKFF
As to the kind of experiment: Growth of yeast surviving solely on yeast OLE1. It is filed as cell-based. The settings on record: percent of DMSO-treated condition. The source says: (§1) To generate yeast strains expressing SCD1 or SCD5 as the sole desaturase, the human SCD1 and SCD5 genes were cloned from cDNAs (Harvard PlasmID database Clone ID HsCD00340237 for SCD1 and HsCD00342695 for SCD5) into yeast plasmid pRS316 (ATCC 77145) between the yeast TDH3 promoter and the CYC1 terminator. The coding sequence of yeast OLE1 was also cloned into this plasmid). These clones were then transformed into the ole1Δ strain and plated on CSM-Ura media (CSM lacking uracil) with 2% glucose (w/v) and independent colonies were isolated and amplified.
(§2) All compound profiling experiments were performed using the same basic protocol. Different genetic backgrounds (e.g., gene deletions) or conditions (e.g., addition of oleic and palmitoleic acid) were replaced as indicated below.
(§3) Compound stocks (10 mM in 100% DMSO) were arrayed into 384 round well, v-bottom polypropylene plates and diluted according to indicated dilution factors. Compound administration was performed in two separate steps. First, 15 μL of CSM-Galactose (induces expression of toxic protein) was dispensed into clear 384 well assay plates using a MULTIDROP™ Combi reagent dispenser. The diluted compound stock plates were then applied to the assay plates using an automated workstation (Perkin Elmer JANUS™) outfitted with a 384 pin tool containing slotted pins that deliver 100 nL of compound. The cultures described above were then diluted to a 2× concentration (0.03 and 0.08 for alpha-synuclein and ApoE, final OD600 of 0.015 and 0.04) in CSM-Galactose. For wild-type and Ole1/SCD1/SCD5 plasmid-containing strains, the 2× cell density was 0.02. In all experiments, 15 μL culture was then dispensed into the pinned assay plate to achieve 30 μL of the 1×OD600 culture and a top drug concentration of […]. For 96-well assays (FIGS. 2A and 2B), compound dilutions in DMSO were generated in 96 well plates and 1 μL was manually pipetted into 96 well clear bottom assay plates.
(§4) For experiments using a plasmid-borne copy of Ole1, SCD1, or SCD5 (FIGS. 4B, 7, and 8), media lacking uracil (SX-Ura, where X is glucose, raffinose, or galactose), was used for all steps of the compound profiling protocol to ensure its maintenance throughout the assay.
(§5) After yeast delivery, assay plates were incubated under humidified conditions at 30° C. for 24 to 40 h. ApoE4 rescue experiments were stopped at 24 h, aSyn experiments at 40 h, Ole1 at 24 h, and SCD1/SCD5 at 40 h. The growth of yeast was monitored by reading the OD600 of each well using a microplate reader (Perkin Elmer EnVision™). For model rescue experiments, raw data were processed by background subtracting and calculating a fold-change relative to DMSO control [(EXP−0.035)/(DMSO−0.035)—where 0.035 is the OD600 contributed by an empty well containing 30 μL of media alone]. For growth inhibition of wild-type cells, raw data were processed by background subtracting and converting values to a percent of the nontreated condition for that strain [(EXP−0.035)/(DMSO−0.035)×100%].

A further experiment concerns the target T2, human SCD5 (Homo sapiens, UniProt Q86SK9).
T2 construct: host or cells: S. cerevisiae ole1Δ strain (W303 pdr1Δ pdr3Δ background), pRS316 plasmid, TDH3 promoter
T2 sequence (Q86SK9 1-330): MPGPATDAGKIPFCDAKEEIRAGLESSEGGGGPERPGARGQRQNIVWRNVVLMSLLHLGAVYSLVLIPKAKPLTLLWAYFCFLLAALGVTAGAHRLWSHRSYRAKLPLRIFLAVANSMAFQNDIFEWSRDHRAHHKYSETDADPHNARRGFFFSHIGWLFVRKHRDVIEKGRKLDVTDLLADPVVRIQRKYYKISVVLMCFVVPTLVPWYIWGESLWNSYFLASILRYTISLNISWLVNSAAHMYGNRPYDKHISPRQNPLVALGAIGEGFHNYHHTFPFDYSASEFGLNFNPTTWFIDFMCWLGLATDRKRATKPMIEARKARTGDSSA
As to the kind of experiment: Growth of humanized yeast expressing human SCD5 as sole desaturase. It is filed as cell-based, Saccharomyces cerevisiae expressing Saccharomyces cerevisiae expressing Saccharomyces cerevisiae expressing Saccharomyces cerevisiae expressing Saccharomyces cerevisiae expressing human SCD5 SCD5 SCD5 SCD5 SCD5. The settings on record: for half-maximal inhibitory concentration (IC50), SCD5 humanized strain: yeast growth.
Text: as §1, §2, §3, §4, §5

The next experiment addresses T3, human SCD1 (Homo sapiens, UniProt O00767).
T3 construct: host or cells: S. cerevisiae ole1Δ strain (W303 pdr1Δ pdr3Δ background), pRS316 plasmid, TDH3 promoter
T3 sequence (O00767 1-359): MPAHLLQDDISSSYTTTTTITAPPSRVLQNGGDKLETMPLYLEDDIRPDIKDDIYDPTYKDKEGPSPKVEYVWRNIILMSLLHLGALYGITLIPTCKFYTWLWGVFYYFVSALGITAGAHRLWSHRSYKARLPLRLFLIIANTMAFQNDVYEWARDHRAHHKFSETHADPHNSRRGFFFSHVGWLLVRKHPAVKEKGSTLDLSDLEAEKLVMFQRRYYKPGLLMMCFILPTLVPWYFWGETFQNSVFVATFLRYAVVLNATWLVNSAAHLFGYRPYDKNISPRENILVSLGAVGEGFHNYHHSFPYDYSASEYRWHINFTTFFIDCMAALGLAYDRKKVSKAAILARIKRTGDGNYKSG
As to the kind of experiment: Growth of humanized yeast expressing human SCD1 as sole desaturase. It is filed as cell-based, humanized yeastized yeastized yeastized yeast. To be noted: for half-maximal inhibitory concentration (IC50), SCD1 humanized strain: yeast growth. As for the experimental part: The coding sequence of yeast OLE1 was also cloned into this plasmid). These clones were then transformed into the ole1Δ strain and plated on CSM-Ura media (CSM lacking uracil) with 2% glucose (w/v) and independent colonies were isolated and amplified.
as §2
Compound administration was performed in two separate steps. First, 15 μL of CSM-Galactose (induces expression of toxic protein) was dispensed into clear 384 well assay plates using a MULTIDROP™ Combi reagent dispenser. […] The cultures described above were then diluted to a 2× concentration (0.03 and 0.08 for alpha-synuclein and ApoE, final OD600 of 0.015 and 0.04) in CSM-Galactose. For wild-type and Ole1/SCD1/SCD5 plasmid-containing strains, the 2× cell density was 0.02.
as §4
After yeast delivery, assay plates were incubated under humidified conditions at 30° C. for 24 to 40 h. ApoE4 rescue experiments were stopped at 24 h, aSyn experiments at 40 h, Ole1 at 24 h, and SCD1/SCD5 at 40 h. The growth of yeast was monitored by reading the OD600 of each well using a microplate reader (Perkin Elmer EnVision™).

The subject of experiment [1] is cellular fatty acid desaturase activity (Ole1). As to the kind of experiment: Quantitative lipid profiling of yeast by LC-MS/MS. It is filed as cell-based, Saccharomyces cerevisiae. As for the experimental part:
Overnight cultures of yeast strain W303 pdr1Δ pdr3Δ were diluted into CSM media with 2% (w/v) raffinose, OD600 0.25, and grown for 4 h before resuspending at an OD600 of 0.2 in CSM media with 2% (w/v) galactose and adding Compound 2 or DMSO at the indicated concentrations. Cells were grown for the indicated timepoints before centrifugation, washing once in PBS, and freezing pellets. Lipids were extracted from pellets by resuspending the pellets in 600 μL methanol, 300 μL water, and 400 μL chloroform, followed by cell lysis by vortexing with glass beads for 1 min. Samples were then centrifuged at 10,000×g for 10 min, and the bottom layer that formed (organic/lipids) was moved into a new tube and evaporated. Samples were then analyzed by LC/MS/MS using a Thermo Scientific Q Exactive™ Orbitrap™ coupled to a Dionex UltiMate® 3000 ultra-high performance liquid chromatography system, following the method described in Tafesse et al. PLoS Pathog. 11(10): e1005188, 2015.

Where [2] appears, read: percent of DMSO-treated condition.

With `O=C(O)Cn1nnc(-c2cc(N3CCC(Oc4cc(F)ccc4Br)CC3)no2)n1` [MK-8245], the “growth inhibition of yeast expressing OLE1” value on yeast OLE1 is “resistant”. Also, the “half-maximal inhibitory concentration (IC50), SCD5 humanized strain” value at human SCD5 is “low nanomolar”.

As for `CNC(=O)c1cccc(NC(=O)N2CCC(Oc3ccccc3Cl)CC2)c1` [Compound A939572], the “growth inhibition of yeast expressing OLE1” value on yeast OLE1 is reported as “resistant”. In addition, the “half-maximal inhibitory concentration (IC50), SCD5 humanized strain” value at human SCD5 is recorded as “low nanomolar”. Also, the “half-maximal inhibitory concentration (IC50), SCD1 humanized strain” value on human SCD1 is listed as “low nanomolar”.

`Cc1nn(C)c2cc(-c3noc(C4CCN(C(=O)CNC(=O)c5ccccc5)CC4)n3)ccc12` [Compound 2, N-(2-(4-(3-(1,3-dimethyl-1H-indazol-6-yl)-1,2,4-oxadiazol-5-yl)piperidin-1-yl)-2-oxoethyl)benzamide]: in experiment [1] (8 h treatment, wild-type yeast), the “decrease in abundance of unsaturated lipid phosphatidylcholine 16:1, 18:1” value is recorded as greater than 12 fold and the “increase in abundance of saturated lipid phosphatidylcholine 26:0” value is reported as greater than 300 fold. For the same compound, the lipid desaturation entry in experiment [1] (yeast cells) is “inhibited lipid desaturation”.

In the case of `C[C@@H]1C[C@@H]([C@H](O)CC2CC(=O)NC(=O)C2)C(=O)[C@@H](C)C1` [Cyclohexamide, cycloheximide], the “growth inhibition of yeast expressing OLE1” value at yeast OLE1 was “inhibited growth of all three strains with the same potency”. Besides, the “growth inhibition of SCD5-expressing yeast” value on human SCD5 (setting [2]) was “inhibited growth of all three strains with the same potency”. Besides, at human SCD1 (setting [2]), the “growth inhibition of SCD1-expressing yeast” value is given as “inhibited growth of all three strains with the same potency”.

As to `Cc1nnc(-c2ccc(N3CCC(Oc4ccccc4C(F)(F)F)CC3)nn2)s1` [MF-438], on yeast OLE1, the “growth inhibition of yeast expressing OLE1” value is recorded as “resistant”. Also, the “half-maximal inhibitory concentration (IC50), SCD5 humanized strain” value at human SCD5 is listed as “low nanomolar”. Also, the “half-maximal inhibitory concentration (IC50), SCD1 humanized strain” value on human SCD1 is given as “low nanomolar”.

Source of the values: patent US20200222400A1, “METHODS FOR THE TREATMENT OF NEUROLOGICAL DISORDERS” (Yumanity Therapeutics, Inc., priority 2019, published 2020).
